Earlier results, collected in patent publication US20110165699A1 (priority 2009, published 2011).

SMILES: CCc1c2c(nc3ccc(O)cc13)-c1cc3c(c(=O)n1C2)COC(=O)[C@]3(O)CC [SN-38, 7-ethyl-10-hydroxy-camptotheen]
- inter-patient variability, CV in AUCs (Sasaki, Jpn. J. Cancer 1995): 38.91%
- intra- and inter-individual pharmacokinetic variability (has been reported): more than 40 fold
